The record followed here is ChEMBL document CHEMBL2202998, “Investigations into specificity of azepinomycin for inhibition of guanase: discrimination between the natural heterocyclic inhibitor and its synthetic nucleoside analogues” (Bioorg Med Chem Lett, 2012).

Experiment [1] in a line: Competitive inhibition of rabbit liver guanase assessed as guanine hydrolysis rate by Lineweaver-Burk plot method. Also on record: species or system Oryctolagus cuniculus.
Experiment [2] has as its target T1, Guanine deaminase (Homo sapiens, UniProt Q9Y2T3).
T1 sequence (Q9Y2T3 whole entry): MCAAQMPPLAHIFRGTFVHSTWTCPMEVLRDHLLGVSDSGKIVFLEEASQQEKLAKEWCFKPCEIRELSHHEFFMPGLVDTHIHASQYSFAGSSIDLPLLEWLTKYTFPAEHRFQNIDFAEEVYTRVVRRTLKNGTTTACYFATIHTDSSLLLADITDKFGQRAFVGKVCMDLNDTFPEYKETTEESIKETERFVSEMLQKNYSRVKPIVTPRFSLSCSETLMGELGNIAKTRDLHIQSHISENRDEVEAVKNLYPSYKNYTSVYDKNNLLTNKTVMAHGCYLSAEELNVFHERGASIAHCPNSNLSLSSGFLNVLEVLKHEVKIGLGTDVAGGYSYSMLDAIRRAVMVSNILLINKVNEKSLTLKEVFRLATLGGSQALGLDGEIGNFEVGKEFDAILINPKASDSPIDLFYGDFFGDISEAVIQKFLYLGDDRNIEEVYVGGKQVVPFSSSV
Description: Inhibition of guanase.

In general, Ki refers to a measure of affinity in units of concentration, obtained from inhibition or displacement. For the compound `O=C1N[C@@H](O)CNc2c1ncn2[C@@H]1O[C@H](CO)[C@@H](O)[C@H]1O`, the inhibition constant Ki in experiment [1] was determined as 119 µM.
The same measure, in the same setting: with `O=C1N[C@H](O)CNc2c1ncn2[C@@H]1O[C@H](CO)[C@@H](O)[C@H]1O` the figure was 129 µM.
Usually IC50 stands for the midpoint of a concentration-inhibition curve. Consider `O=C1NC(O)CNc2nc[nH]c21` (racemic) [AZEPINOMYCIN], for which the Ki in experiment [1] was 2.5 µM. In experiment [2], this compound yielded an IC50 of 5 µM.
